Assay results reported in patent US9700044B2, “Symmetrical marinopyrrole derivatives as potential antibiotic agents” (priority 2013, dated 2017).
Converted amounts (≈) assume the structure as drawn. “And” between values parts separate entries of the source, which are not always exact repeats. Equal values may be shown once. Read-outs that look alike come from different tables or passages of the source.

Legend:
Assay type in all cases: cell-based
[1] = system: Moderately vancomycin-resistant Enterococci faecium with the VanA gene (WHO-3); assay: MIC by agar dilution, VRE (WHO-3); settings: WHO-3
Excerpt: (§1) A panel of multiple resistance Gram-positive and Gram-negative pathogens listed in Tables 1 and 2 was used to evaluate the antimicrobial activity of marinopyrrole derivatives (Chart 1) with vancomycin as a positive control. Except for those marked with WHO, all pathogens were isolated between 2008 and 2010 in hospitals located in Beijing; Guangzhou; Sichuan, Shandong and Jiangsu Province. Determination of the minimum inhibitory concentration (MIC) was done by the guidelines of the Clinical and Laboratory Standards Institute (Clinical and Laboratory Standards Institute, Performance standards for antimicrobial susceptibility testing, seventeenth informational supplement. 2007, 27, M100-S17). The susceptibility tests of a bacterial strain to a marinopyrrole derivative were performed by an agar dilution method. Briefly, each sterile petri dish contained a final volume of 15 mL comprising 1 mL of a marinopyrrole derivative and 14 mL of Mueller-Hinton broth. The concentrations of a marinopyrrole derivative are 128, 64, 32, 16, 8, 4, 2, 1, 0.5, 0.25, 0.125, 0.06, 0.03, 0.015 and 0.008 μg/mL. The petri dish containing the broth with different concentration of antibiotics was first inoculated with 10^5 CFU/mL (Denley A400, United Kingdom) and the culture was then incubated with shaking at 35-37° C. for 18-20 h. The potency of the compound was determined and expressed as minimum inhibitory concentration (MIC) in μg/mL. The MIC was determined as the lowest concentration of antibiotic that inhibited visible bacterial growth.

[2] = system: Methicillin-resistant Staphylococcus epidermidis (MRSE); assay: MIC by agar dilution, MRSE clinical isolates; settings: for MIC: MRSE
Excerpt: as §1

[3] = system: Methicillin-susceptible Staphylococcus aureus (MSSA); assay: MIC by agar dilution, MSSA clinical isolates; settings: for MIC: MSSA, data from 8 isolates
Excerpt: as §1

[4] = system: Methicillin-resistant Staphylococcus aureus with the mec A gene and PBP2a (WHO-31); assay: MIC by agar dilution, MRSA (WHO-31); settings: WHO-31
Excerpt: as §1

[5] = system: Methicillin-resistant Staphylococcus aureus (MRSA); assay: MIC by agar dilution, MRSA clinical isolates; settings: for MIC: MRSA, data from 8 isolates
Excerpt: as §1

[6] = system: Oxacillin-resistant Staphylococcus aureus (WHO-25); assay: MIC by agar dilution, ORSA (WHO-25); settings: WHO-25
Excerpt: as §1

[7] = Enterococcus, Table 2, read-out: MIC
[8] = Staphylococcus epidermidis, Table 2, data from 4 isolates, read-out: MIC
[9] = Staphylococcus aureus, Table 2, read-out: MIC
[10] = Staphylococcus epidermidis, Table 3, data from 4 isolates, read-out: MIC
[11] = Staphylococcus aureus, Table 3, read-out: MIC

| SMILES | MIC ([1]; Table 2) | MIC ([2]; Table 2, data from 4 isolates) | MIC ([3]; Table 2) | MIC ([4]; Table 2) | MIC ([5]; Table 2) | MIC ([6]; Table 2) | MIC [1, 7] | MIC [2, 8] | MIC [3, 9] | MIC [4, 9] | MIC [5, 9] | MIC [6, 9] | other results |
| --- | --- | --- | --- | --- | --- | --- | --- | --- | --- | --- | --- | --- | --- |
| CCOC(=O)CS(=O)(=O)c1ccc(C(=O)c2[nH]c(Cl)c(Cl)c2-n2c(C(=O)c3ccc(S(=O)(=O)CC(=O)OCC)cc3O)cc(Cl)c2Cl)c(O)c1 [Compound 28] | 4 µg/mL (≈ 4.94 µM) | 8 µg/mL (≈ 9.87 µM) | >64 µg/mL | >64 µg/mL | >64 µg/mL | 32 µg/mL (≈ 39.5 µM) | – | – | – | – | – | – | – |
| CCOC(=O)CSc1ccc(C(=O)c2[nH]c(Cl)c(Cl)c2-n2c(C(=O)c3ccc(SCC(=O)OCC)cc3O)cc(Cl)c2Cl)c(O)c1 [Compound 25] | 2 µg/mL (≈ 2.68 µM) | 8 µg/mL (≈ 10.7 µM) | 64 µg/mL (≈ 85.7 µM) | 16 µg/mL (≈ 21.4 µM) | 32 to 64 µg/mL | 64 µg/mL (≈ 85.7 µM) | – | – | – | – | – | – | – |
| O=C(O)CS(=O)(=O)c1ccc(C(=O)c2[nH]c(Cl)c(Cl)c2-n2c(C(=O)c3ccc(S(=O)(=O)CC(=O)O)cc3O)cc(Cl)c2Cl)c(O)c1 [Compound 32] | – | – | – | – | – | – | 64 µg/mL (≈ 84.8 µM) | 8 to 64 µg/mL (≈ 10.6 to 84.8 µM) | > 64 µg/mL | > 64 µg/mL | > 64 µg/mL | > 64 µg/mL | – |
| Cc1cc(O)c(C(=O)c2[nH]c(Cl)c(Cl)c2-n2c(C(=O)c3cc(Cl)c(C)cc3O)cc(Cl)c2Cl)cc1Cl [CCW14] | – | – | – | – | – | – | – | – | – | – | – | – | MIC ([1]; Enterococcus, Table 3, read-out: MIC): 4 µg/mL (≈ 6.59 µM); MIC [2, 10]: 1 µg/mL (≈ 1.65 µM); MIC [3, 11]: 1 µg/mL (≈ 1.65 µM); MIC [4, 11]: 1 µg/mL (≈ 1.65 µM); MIC [5, 11]: 1 µg/mL (≈ 1.65 µM); MIC [6, 11]: 4 µg/mL (≈ 6.59 µM) |

The next lines start with results.

| MIC ([1]; Table 2) | MIC ([2]; Table 2, data from 4 isolates) | MIC ([3]; Table 2) | MIC ([4]; Table 2) | MIC ([5]; Table 2) | MIC ([6]; Table 2) | MIC [1, 7] | MIC [2, 8] | MIC [3, 9] | MIC [4, 9] | MIC [5, 9] | MIC [6, 9] | SMILES | other results |
| --- | --- | --- | --- | --- | --- | --- | --- | --- | --- | --- | --- | --- | --- |
| 8 µg/mL (≈ 9.77 µM) | 32 µg/mL (≈ 39.1 µM) | >64 µg/mL | 64 µg/mL (≈ 78.2 µM) | >64 µg/mL | 32 µg/mL (≈ 39.1 µM) | – | – | – | – | – | – | O=C(c1ccc(S(=O)(=O)Cc2ccccc2)cc1O)c1[nH]c(Cl)c(Cl)c1-n1c(C(=O)c2ccc(S(=O)(=O)Cc3ccccc3)cc2O)cc(Cl)c1Cl [Compound 29, (4,4′,5,5′-Tetrachloro-1′H-1,3′-bipyrrole-2,2′-diyl)bis(((2-hydroxy-4-benzylsulfonyl)phenyl)methanone)] | – |
| >64 µg/mL | 2 to 16 µg/mL | >64 µg/mL | >64 µg/mL | >64 µg/mL | >64 µg/mL | – | – | – | – | – | – | COc1ccc(CS(=O)(=O)c2ccc(C(=O)c3[nH]c(Cl)c(Cl)c3-n3c(C(=O)c4ccc(S(=O)(=O)Cc5ccc(OC)cc5)cc4O)cc(Cl)c3Cl)c(O)c2)cc1 [Compound 30] | – |
| – | – | – | – | – | – | 0.5 µg/mL (≈ 0.774 µM) | < 0.008 µg/mL | 0.125 µg/mL (≈ 0.193 µM) | 1 µg/mL (≈ 1.55 µM) | 0.125 to 0.25 µg/mL (≈ 0.193 to 0.387 µM) | 1 µg/mL (≈ 1.55 µM) | O=C(c1ccc(C(F)(F)F)cc1O)c1[nH]c(Cl)c(Cl)c1-n1c(C(=O)c2ccc(C(F)(F)F)cc2O)cc(Cl)c1Cl [Compound 41, (4,4′,5,5′-tetrachloro-1′H-1,3′-bipyrrole-2,2′-diyl)bis((2-hydroxy-4-(trifluoromethyl)phenyl)methanone)] | MIC ([1]; Table 3): 0.5 µg/mL (≈ 0.774 µM); MIC [2, 10]: < 0.008 µg/mL; MIC ([2]; Staphylococcus epidermidis, against MRSE, read-out: MIC): 0.008 µg/mL (≈ 0.0124 µM); fold more potent than marinopyrrole A ([2]; against MRSE): > 31 fold and 31 fold; fold more potent than vancomycin ([2]; against MRSE): > 62 fold and 63-125 fold; MIC ([3]; Table 3): 0.125 µg/mL (≈ 0.193 µM); fold more potent than marinopyrrole A ([3]; against MSSA): 4 fold; fold more potent than vancomycin ([3]; against MSSA): 8 fold; MIC ([4]; Table 3): 1 µg/mL (≈ 1.55 µM); MIC ([5]; Table 3): 0.125 to 0.25 µg/mL; fold more potent than marinopyrrole A ([5]; against MRSA): 2-4 fold and 4 fold; fold more potent than vancomycin ([5]; against MRSA): 2-4 fold and 4-8 fold; MIC ([6]; Table 3): 1 µg/mL (≈ 1.55 µM) |
| – | – | – | – | – | – | 4 µg/mL (≈ 7.38 µM) | 2 to 8 µg/mL (≈ 3.69 to 14.8 µM) | 2 µg/mL (≈ 3.69 µM) | 2 µg/mL (≈ 3.69 µM) | 2 µg/mL (≈ 3.69 µM) | 4 µg/mL (≈ 7.38 µM) | O=C(c1ccc(O)cc1O)c1[nH]c(Cl)c(Cl)c1-n1c(C(=O)c2ccc(O)cc2O)cc(Cl)c1Cl [Compound 24, (4,4′,5,5′-Tetrachloro-1′H-1,3′-bipyrrole-2,2′-diyl)bis((2,4-dihydroxyphenyl)methanone)] | – |
